Measurements published in paper PMC8445441, “Elucidating the mechanism by which synthetic helper peptides sensitize Pseudomonas aeruginosa to multiple antibiotics” (PLoS Pathogens, 2021).
Where two headings read alike, the source gives them in different places. One block for each compound: values may come before it.

How the values were obtained:
P. aeruginosa ATCC27853 = assay: microbe, parasite or virus in culture; parameters: MICa: MIC of the antibiotic / MICac: MIC of the antibiotic in the combination: unit not given beside the values; details: for MIC: Pseudomonas aeruginosa, ATCC27853, 18 h, read-out: MICa: MIC of the antibiotic; for FICI / MICac: MIC of the antibiotic in the combination: strain ATCC27853; for FICI: antibiotic + D-11 (MICb/MICbc 32/4); for MICac: MIC of the antibiotic in the combination: with D-11 at MICbc 4, unit not given
Description: (§1) The MIC tests were performed in triplicate using broth microdilution in accordance with Clinical and Laboratory Standards Institute (CLSI) recommendations (http://iacld.ir/DL/public/CLSI-2018-M100-S28.pdf). Briefly, drugs were two-fold diluted in MHB and mixed with an equal volume of bacterial suspensions containing approximately 1 × 10^6 CFU/mL in 96-well microliter plate. After 18 h incubation at 37 °C, the MIC values were defined as the lowest concentrations of antibiotics with no visible growth of bacteria. […] Otherwise, 1/4 MIC of the peptide was used in the combination. […] If needed, membrane compounds PG, PE, PC, CL or LPS, or membrane stabilizers MgCl2 or CaCl2, or efflux pumps inhibitor PAβN were added to the broth medium to clarify the effect of other substances on the synergy between peptide and antibiotics. All the tests were performed in triplicate.
(§2) The fractional inhibitory concentration (FIC) indices were calculated using the previously described formula FICI = FICa + FICb = MICac/MICa + MICbc/MICb. The FICI was interpreted according to EUCAST [65] as follows: synergistic, FICI≤0.5; additive, 0.5<FICI≤1; indifferent, 1<FICI<2; antagonistic, FICI ≥2. For the FICI calculations, twice the highest concentration tested was used in the cases where the MIC was not reached.

P. aeruginosa PAK = assay: microbe, parasite or virus in culture; parameters: MICa: MIC of the antibiotic / MICac: MIC of the antibiotic in the combination: unit not given beside the values; details: for MIC: Pseudomonas aeruginosa, 18 h, read-out: MICa: MIC of the antibiotic; for FICI / MICac: MIC of the antibiotic in the combination: strain PAK; for FICI: antibiotic + D-11 (MICb/MICbc 64/4); for MICac: MIC of the antibiotic in the combination: with D-11 at MICbc 4, unit not given
Description: as §1, §2

P. aeruginosa PA14 = assay: microbe, parasite or virus in culture; parameters: MICa: MIC of the antibiotic / MICac: MIC of the antibiotic in the combination: unit not given beside the values; details: for MICac: MIC of the antibiotic in the combination: with D-11 at MICbc 4
Description: as §1, §2

P. aeruginosa NR-31040 = assay: microbe, parasite or virus in culture; parameters: MICa: MIC of the antibiotic / MICac: MIC of the antibiotic in the combination: unit not given beside the values; details: strain NR-31040; for MICa: MIC of the antibiotic: antibiotic alone; for MICa: MIC of the antibiotic / MICac: MIC of the antibiotic in the combination: unit not given; for MICac: MIC of the antibiotic in the combination: with D-11 at MICbc 4
Description: as §1, §2

P. aeruginosa NR-31041 = assay: microbe, parasite or virus in culture; parameters: MICa: MIC of the antibiotic / MICac: MIC of the antibiotic in the combination: unit not given beside the values; details: for MIC: Pseudomonas aeruginosa, NR31041, 18 h, read-out: MICa: MIC of the antibiotic; for FICI / MICac: MIC of the antibiotic in the combination: strain NR-31041; for FICI: antibiotic + D-11 (MICb/MICbc 64/4); for MICac: MIC of the antibiotic in the combination: with D-11 at MICbc 4, unit not given
Description: as §1, §2

P. aeruginosa HM-214 = details: strain HM-214; antibiotic + D-11 (MICb/MICbc 128/4)
Description: as §1, §2

[1] = test system: clinical P. aeruginosa isolates; assay: microbe, parasite or virus in culture; details: Pseudomonas aeruginosa, 18 h
Description: The bacterial strains, primers and plasmids used in this study are listed in S5 Table. […] Bacteria were cultured in LB medium or cation-adjusted Muller-Hinton broth (CA-MHB) at 37 °C with agitation at 220 rpm. All the antibiotics and chemical compounds used in this study were purchased from Sigma-Aldrich.
as §1

P. aeruginosa AUMC-Pa-1 = details: strain AUMC-Pa-1; antibiotic + D-11 (MICb/MICbc 128/4)
Description: as §1, §2

P. aeruginosa AUMC-Pa-2 = details: strain AUMC-Pa-2; antibiotic + D-11 (MICb/MICbc 64/4)
Description: as §1, §2

P. aeruginosa AUMC-Pa-4 = assay: microbe, parasite or virus in culture; details: for MIC: Pseudomonas aeruginosa, AUMCPA4, 18 h, read-out: MICa: MIC of the antibiotic; for MICac: MIC of the antibiotic in the combination: with D-11 at MICbc 4, unit not given
Description: as §1, §2

P. aeruginosa PAO1 = assay: microbe, parasite or virus in culture; details: for MIC: Pseudomonas aeruginosa, PAO1, 18 h; for FICI / MICac: the MIC for the antibiotic in the combination: S3 Table
Description: as §1, §2

P. aeruginosa AUMC-Pa-5 = assay: microbe, parasite or virus in culture; details: strain AUMC-Pa-5; for FICI: antibiotic + D-11 (MICb/MICbc 64/4); for MICa: MIC of the antibiotic: antibiotic alone; for MICa: MIC of the antibiotic / MICac: MIC of the antibiotic in the combination: unit not given; for MICac: MIC of the antibiotic in the combination: with D-11 at MICbc 4
Description: as §1, §2

P. aeruginosa AUMC-Pa-6 = assay: microbe, parasite or virus in culture; details: for MIC: Pseudomonas aeruginosa, AUMCPA6, 18 h, read-out: MICa: MIC of the antibiotic; for FICI / MICac: MIC of the antibiotic in the combination: strain AUMC-Pa-6; for FICI: antibiotic + D-11 (MICb/MICbc 64/4); for MICac: MIC of the antibiotic in the combination: with D-11 at MICbc 4, unit not given
Description: as §1, §2

P. aeruginosa AUMC-Pa-3 = assay: microbe, parasite or virus in culture; details: for MIC: Pseudomonas aeruginosa, AUMCPA3, 18 h, read-out: MICa: MIC of the antibiotic; for FICI / MICac: MIC of the antibiotic in the combination: strain AUMC-Pa-3; for FICI: antibiotic + D-11 (MICb/MICbc 128/4); for MICac: MIC of the antibiotic in the combination: with D-11 at MICbc 4, unit not given
Description: as §1, §2

Structure (SMILES): CO[C@@H]1[C@@H](OC(=O)c2ccc(C)[nH]2)[C@@H](O)[C@H](Oc2ccc3c(O)c(NC(=O)c4ccc(O)c(CC=C(C)C)c4)c(=O)oc3c2Cl)OC1(C)C [Chlorobiocin]
MIC (P. aeruginosa ATCC27853): 0.5 µM
FICI (P. aeruginosa ATCC27853): 1.125
MICac: MIC of the antibiotic in the combination (P. aeruginosa ATCC27853): 0.5/0.5
MIC (P. aeruginosa PAK): 0.5 µM
FICI (P. aeruginosa PAK): 1.063
MICac: MIC of the antibiotic in the combination (P. aeruginosa PAK): 0.5/0.5
FICI (P. aeruginosa PA14; strain PA14, antibiotic + D-11 (MICb/MICbc 128/4)): 1.031
MICa: MIC of the antibiotic (P. aeruginosa PA14; strain PA14, antibiotic alone, unit not given): 1/1
MICac: MIC of the antibiotic in the combination (P. aeruginosa PA14; strain PA14, unit not given): 1/1
FICI (P. aeruginosa NR-31040; antibiotic + D-11 (MICb/MICbc 128/4)): 1.031
MICa: MIC of the antibiotic (P. aeruginosa NR-31040): 1/1
MICac: MIC of the antibiotic in the combination (P. aeruginosa NR-31040): 1/1
MIC (P. aeruginosa NR-31041): 1 µM
FICI (P. aeruginosa NR-31041): 0.563
MICac: MIC of the antibiotic in the combination (P. aeruginosa NR-31041): 0.5
FICI (P. aeruginosa HM-214): 1.031
MIC ([1]; read-out: Antibiotic sensibility (MIC) of clinical P. aeruginosa isolate AUMC-Pa-1): 4 µM
MIC ([1]; read-out: Antibiotic sensibility (MIC) of clinical P. aeruginosa isolate AUMC-Pa-2): 0.25 µM
MIC ([1]; read-out: Antibiotic sensibility (MIC) of clinical P. aeruginosa isolate AUMC-Pa-3): 0.5 µM
MIC ([1]; read-out: Antibiotic sensibility (MIC) of clinical P. aeruginosa isolate AUMC-Pa-4): 0.25 µM
MIC ([1]; read-out: Antibiotic sensibility (MIC) of clinical P. aeruginosa isolate AUMC-Pa-5): 1 µM
MIC ([1]; read-out: Antibiotic sensibility (MIC) of clinical P. aeruginosa isolate AUMC-Pa-6): 0.25 µM
MIC ([1]; read-out: Antibiotic sensibility (MIC) of clinical P. aeruginosa isolate HM-214): 1 µM
MIC ([1]; read-out: Antibiotic sensibility (MIC) of clinical P. aeruginosa isolate NR-31040): 1 µM
MIC ([1]; read-out: Antibiotic sensibility (MIC) of clinical P. aeruginosa isolate NR-31041): 1 µM
FICI (P. aeruginosa AUMC-Pa-1): 1.031
FICI (P. aeruginosa AUMC-Pa-2): 2.063
MIC (P. aeruginosa AUMC-Pa-4): 0.25 µM
FICI (P. aeruginosa AUMC-Pa-4; strain AUMC-Pa-4, antibiotic + D-11 (MICb/MICbc 128/4)): 2.031
MICac: MIC of the antibiotic in the combination (P. aeruginosa AUMC-Pa-4; strain AUMC-Pa-4): 0.5
MIC (P. aeruginosa PAO1; read-out: MICa: the MIC of antibiotics): 0.5 µM
FICI (P. aeruginosa PAO1; PAO1, antibiotic + 2 μM D-11): 0.313
FICI (P. aeruginosa PAO1; PAO1, antibiotic + 4 μM D-11): 0.375
MICac: the MIC for the antibiotic in the combination (P. aeruginosa PAO1; PAO1, with 2 μM D-11): 0.125 µM
MICac: the MIC for the antibiotic in the combination (P. aeruginosa PAO1; PAO1, with 4 μM D-11): 0.125 µM
FICI (P. aeruginosa AUMC-Pa-5): 2.063
MICa: MIC of the antibiotic (P. aeruginosa AUMC-Pa-5): 1
MICac: MIC of the antibiotic in the combination (P. aeruginosa AUMC-Pa-5): 2
MIC (P. aeruginosa AUMC-Pa-6): 0.25 µM
FICI (P. aeruginosa AUMC-Pa-6): 1.063
MICac: MIC of the antibiotic in the combination (P. aeruginosa AUMC-Pa-6): 0.25/0.25
MIC (P. aeruginosa AUMC-Pa-3): 0.5 µM
FICI (P. aeruginosa AUMC-Pa-3): 1.031
MICac: MIC of the antibiotic in the combination (P. aeruginosa AUMC-Pa-3): 0.5/0.5

MIC (P. aeruginosa ATCC27853): 2 µM
MICac: MIC of the antibiotic in the combination (P. aeruginosa ATCC27853): 0.25
MIC (P. aeruginosa PAK): 2 µM
MICac: MIC of the antibiotic in the combination (P. aeruginosa PAK): 0.5
MIC (P. aeruginosa PA14; Pseudomonas aeruginosa, PA14, 18 h, read-out: MICa: MIC of the antibiotic): 1 µM
MICac: MIC of the antibiotic in the combination (P. aeruginosa PA14; strain PA14, unit not given): 0.5
MICa: MIC of the antibiotic (P. aeruginosa NR-31040): 2
MICac: MIC of the antibiotic in the combination (P. aeruginosa NR-31040): 1
MIC (P. aeruginosa NR-31041): 2 µM
MICac: MIC of the antibiotic in the combination (P. aeruginosa NR-31041): 0.5
MIC (P. aeruginosa AUMC-Pa-4): 1 µM
MICac: MIC of the antibiotic in the combination (P. aeruginosa AUMC-Pa-4; strain AUMC-Pa-4): 0.25
MIC (P. aeruginosa PAO1; read-out: MICa: the MIC of antibiotics, S3 Table, antibiotic alone, PAO1): 1 µM
MICac: the MIC for the antibiotic in the combination (P. aeruginosa PAO1; PAO1, with 2 μM D-11): 0.125 µM
MICac: the MIC for the antibiotic in the combination (P. aeruginosa PAO1; PAO1, with 4 μM D-11): 0.03125 µM
MICa: MIC of the antibiotic (P. aeruginosa AUMC-Pa-5): 1
MICac: MIC of the antibiotic in the combination (P. aeruginosa AUMC-Pa-5): 2
MIC (P. aeruginosa AUMC-Pa-6): 0.5 µM
MICac: MIC of the antibiotic in the combination (P. aeruginosa AUMC-Pa-6): 0.5/0.5
MIC (P. aeruginosa AUMC-Pa-3): 1 µM
MICac: MIC of the antibiotic in the combination (P. aeruginosa AUMC-Pa-3): 0.25
Structure (SMILES): CC1COc2c(N3CCN(C)CC3)c(F)cc3c(=O)c(C(=O)O)cn1c23 (stereo not shown) [Ofloxacin]
FICI (P. aeruginosa ATCC27853): 0.250
FICI (P. aeruginosa PAK): 0.313
FICI (P. aeruginosa NR-31041): 0.313
FICI (P. aeruginosa HM-214): 1.031
FICI (P. aeruginosa AUMC-Pa-1): 0.094
FICI (P. aeruginosa AUMC-Pa-2): 0.563
FICI (P. aeruginosa PAO1; PAO1, antibiotic + 2 μM D-11): 0.188
FICI (P. aeruginosa PAO1; PAO1, antibiotic + 4 μM D-11): 0.156
FICI (P. aeruginosa AUMC-Pa-5): 2.063
FICI (P. aeruginosa AUMC-Pa-6): 1.063
FICI (P. aeruginosa AUMC-Pa-3): 0.281
